Test results reported in paper PMC6154661, “In Vitro Glucuronidation and Sulfation of ε-Viniferin, a Resveratrol Dimer, in Humans and Rats” (Molecules : A Journal of Synthetic Chemistry and Natural …, 2017).
Values joined by “and” are separate entries in the source; they are usually repeats but may differ in a detail not shown here. Identical values can stand only once. Like-named read-outs stand apart in the source and are kept apart here.

How the values were obtained:
[1] = Formation of glucurono- and sulfoconjugates of ε-viniferin (50 µM, 40 min) with human liver S9 fractions; assay type: in vitro ADME; settings: human liver S9, ε-viniferin 50 µM
Experimental: (§1) After incubation of ε-viniferin (50 µM) for 40 min at 37 °C with either human (Figure 2a, lower panel) or rat (Figure 2b, lower panel) liver S9 fractions (2 mg/mL) in the presence of different phase II cofactor(s), i.e., 3′-phosphoadenosine-5′-phosphosulfate (PAPS) and UDPGA, eight metabolites were found using UPLC-DAD-MS. These metabolites were further identified by comparison with the UPLC retention times and mass spectra of the authentic chemical standards that were obtained by chemical hemi-synthesis (Figure 1a). These eight compounds were the four glucuronoconjugates (MG1, MG2, MG3, and MG4) and the four sulfoconjugates (MS1, MS2, MS3, and MS4). These metabolites were absent in the control condition, i.e., in the presence of liver S9 fractions and in the absence of phase II cofactors (data not shown).
(§2) Samples from either chemical hemi-synthesis or metabolic reactions were carried using a 1290 Infinity UPLC (Agilent Technologies, Courtaboeuf, France). The UPLC was coupled to an Esquire 3000 Plus ion trap mass spectrometer using an ESI source (Bruker-Daltonics, Billerica, MA, USA). 2 µL were injected into an Agilent SB-C18 column (1.8 µm, 2.1 × 100 mm). Samples were eluted with solvent A (H2O 0.1% FA) and solvent B (acetonitrile 0.1% FA) by the following gradient program: 0–1.7 min, 10% B; 1.7–3.4 min, 10–20% B; 3.4–5.1 min, 20–30% B; 5.1–7.8 min, 30% B; 7.8–8.5 min, 30–35% B; 8.5–11.9 min, 35–60% B; 11.9–15.3 min, 60–100% B; 15.3–17 min, 100% B; 17–17.3 min, 100–10% B. The flow rate was set to 0.4 mL/min and the UV detector was set at the wavelength 320 nm. Total ion chromatograms were obtained using negative mode with a range of m/z 130–1400. The parameters were: capillary voltage, +4 kV; nebulizer pressure, 40 psi; dry gas, 10 L/min; dry temperature, 365 °C. Data analysis was performed with Bruker Data Analysis 3.2 (Bruker-Daltonics, Billerica, MA, USA). Metabolite concentrations were expressed as an equivalent of the ε-viniferin standard curve.
(§3) The incubation conditions were optimized by preliminary experiments to ensure the formation rates of metabolites were linear over the incubation time and at the concentration of protein added. Sulfation was investigated by incubating human or rat liver S9 fractions (2 mg/mL) with ε-viniferin at different concentrations (5 to 300 µM) in Tris-HCl buffer (50 mM, pH 7.4), in the presence of PAPS (1 mM), DTT (10 mM), MgCl2 (5 mM) in a final volume of 100 µL. After 40 min at 37 °C, the reaction was stopped with 100 µL of methanol to precipitate the protein. Glucuronidation was investigated by incubating human or rat liver S9 fractions (2 mg/mL) with ε-viniferin at different concentrations (5 to 300 µM) in Tris-HCl buffer (50 mM, pH 7.4), in the presence of UDPGA (1 mM), alamethicin (25 µg/mL), and MgCl2 (5 mM) in a final volume of 100 µL. After 40 min at 37 °C, the reaction was stopped with 100 µL of methanol to precipitate the protein. Samples from sulfation and glucuronidation were then centrifuged for 30 min (14,000× g, 4 °C), and the resultant supernatants were analyzed using UPLC-DAD-MS as described above. The kinetic model that was used to analyze the results was substrate inhibition. Kinetic parameters, i.e., Vmax and Km were obtained using GraphPad Prism software (La Jolla, CA, USA). Results are expressed as mean ± sem of three independent experiments.

[2] = Glucuronidation of ε-viniferin by rat liver S9 fractions (UDPGA); assay type: in vitro ADME; settings: for Vmax: formation of the glucuronide from ε-viniferin, rat liver S9, mean ± SEM, n=3
Experimental: as §1, §2, §3
(§4) V = (Vmax × [S])/(Km + [S] + [S]^2/Ki), […]

[3] = Glucuronidation of ε-viniferin by human liver S9 fractions (UDPGA); assay type: in vitro ADME; settings: for Vmax: formation of the glucuronide from ε-viniferin, human liver S9, mean ± SEM, n=3; for relative abundance among the glucuronides (UPLC-DAD profile): human liver S9 2 mg/mL, ε-viniferin 50 µM, UDPGA, 40 min, 37 °C
Experimental: as §1, §2, §3
(§5) V = (Vmax × [S])/(Km + [S] + [S]^2/Ki),
(§6) Vmax: maximal velocity; Km: substrate affinity constant; [S]: substrate concentration; Ki: substrate inhibition constant.

[4] = Formation of glucurono- and sulfoconjugates of ε-viniferin (50 µM, 40 min) with rat liver S9 fractions; assay type: in vitro ADME; settings: rat liver S9, ε-viniferin 50 µM
Experimental: as §1, §2, §3

[5] = Sulfation of ε-viniferin by rat liver S9 fractions (PAPS); assay type: in vitro ADME; settings: for Vmax: formation of the sulfate from ε-viniferin, rat liver S9, mean ± SEM, n=3; for relative abundance among the sulfoconjugates (UPLC-DAD profile): rat liver S9 2 mg/mL, ε-viniferin 50 µM, PAPS, 40 min, 37 °C
Experimental: as §1, §2, §3, §5, §6

[6] = Sulfation of ε-viniferin by human liver S9 fractions (PAPS); assay type: in vitro ADME; settings: for Vmax: formation of the sulfate from ε-viniferin, human liver S9, mean ± SEM, n=3; for relative abundance among the sulfoconjugates (UPLC-DAD profile): human liver S9 2 mg/mL, ε-viniferin 50 µM, PAPS, 40 min, 37 °C
Experimental: as §1, §2, §3, §4

[7] = rat, in vivo; cited from earlier work
[8] = set-up: method as in PMID 27902942; settings: mice, oral administration; cited from earlier work

Compound	percentage of each metabolite relative to the total amount of ε-viniferin metabolites formed by glucuronidation [1]	percentage of each metabolite relative to the total amount of ε-viniferin metabolites formed by glucuronidation [4]	percentage of each metabolite relative to the total amount of ε-viniferin metabolites formed by sulfation [1]	relative abundance among the sulfoconjugates (UPLC-DAD profile) [5]	percentage of each metabolite relative to the total amount of ε-viniferin metabolites formed by sulfation [4]	relative abundance among the sulfoconjugates (UPLC-DAD profile) [6]	Vmax [2] [pmol/min/mg protein]	Vmax [3] [pmol/min/mg protein]	Vmax [5] [pmol/min/mg protein]	also measured
O=C(O)C1OC(Oc2cc(/C=C/c3ccc(O)cc3)c3c(c2)OC(c2ccc(O)cc2)C3c2cc(O)cc(O)c2)C(O)C(O)C1O (stereo not shown) [MG1]	MG1: 54.6 ± 2.4%	MG1: 91.1 ± 2.4%	–	–	–	–	548.90 ± 86.17	11.27 ± 1.30	–	relative abundance among the glucuronides (UPLC-DAD profile) ([2]; rat liver S9 2 mg/mL, ε-viniferin 50 µM, UDPGA, 40 min, 37 °C): major metabolite; relative abundance among the glucuronides (UPLC-DAD profile) [3]: major metabolites
O=C(O)C1OC(Oc2ccc(/C=C/c3cc(O)cc4c3C(c3cc(O)cc(O)c3)C(c3ccc(O)cc3)O4)cc2)C(O)C(O)C1O (stereo not shown) [MG2]	MG2: 5.0 ± 1.2%	MG2: 1.1 ± 0.2%	–	–	–	–	12.49 ± 1.13	2.54 ± 0.16	–	–
O=C(O)C1OC(Oc2ccc(C3Oc4cc(O)cc(/C=C/c5ccc(O)cc5)c4C3c3cc(O)cc(O)c3)cc2)C(O)C(O)C1O (stereo not shown) [MG3]	MG3: 8.9 ± 0.5%	MG3: 0.7 ± 0.0%	–	–	–	–	3.06 ± 0.14	0.78 ± 0.06	–	–
O=C(O)C1OC(Oc2cc(O)cc(C3c4c(/C=C/c5ccc(O)cc5)cc(O)cc4OC3c3ccc(O)cc3)c2)C(O)C(O)C1O (stereo not shown) [MG4]	MG4: 31.5 ± 0.9%	MG4: 7.1 ± 0.1%	–	–	–	–	43.99 ± 5.49	4.91 ± 0.78	–	relative abundance among the glucuronides (UPLC-DAD profile) [3]: major metabolites
Oc1ccc([C@H]2Oc3ccc(/C=C/c4cc(O)cc(O)c4)cc3[C@@H]2c2cc(O)cc(O)c2)cc1 [δ-viniferin]	–	–	–	–	–	–	–	–	–	oral bioavailability [7]: 2.3%
Oc1ccc(/C=C/c2cc(O)cc3c2[C@@H](c2cc(O)cc(O)c2)[C@H](c2ccc(O)cc2)O3)cc1 [ε-viniferin, ε-Viniferin]	–	–	–	–	–	–	–	–	–	Glucuronidation (%) [1]: 29.1% and 29.1 ± 1.2%; Sulfatation (%) [1]: 43.6% and 43.6 ± 1.8%; Sulfatation (%) [4]: 4.3% and 4.3 ± 0.3%; ε-viniferin conversion (%) [4]: 78.1 ± 0.9%; oral bioavailability [8]: 0.77%

Further lines, with some results ahead:

percentage of each metabolite relative to the total amount of ε-viniferin metabolites formed by glucuronidation [1]	percentage of each metabolite relative to the total amount of ε-viniferin metabolites formed by glucuronidation [4]	percentage of each metabolite relative to the total amount of ε-viniferin metabolites formed by sulfation [1]	relative abundance among the sulfoconjugates (UPLC-DAD profile) [5]	percentage of each metabolite relative to the total amount of ε-viniferin metabolites formed by sulfation [4]	relative abundance among the sulfoconjugates (UPLC-DAD profile) [6]	Compound	Vmax [2] [pmol/min/mg protein]	Vmax [3] [pmol/min/mg protein]	Vmax [5] [pmol/min/mg protein]	also measured
–	–	MS1: 75.2 ± 3.8%	almost equal amounts	MS1: 38.0 ± 1.4%	major metabolite	O=S(=O)(O)Oc1cc(/C=C/c2ccc(O)cc2)c2c(c1)OC(c1ccc(O)cc1)C2c1cc(O)cc(O)c1 (stereo not shown) [MS1]	–	–	25.16 ± 2.29	Vmax [6]: 361.60 ± 13.09 pmol/min/mg protein
–	–	MS2: 24.8 ± 1.2%	almost equal amounts	MS2: 23.5 ± 3.1%	–	O=S(=O)(O)Oc1ccc(/C=C/c2cc(O)cc3c2C(c2cc(O)cc(O)c2)C(c2ccc(O)cc2)O3)cc1 (stereo not shown) [MS2]	–	–	8.46 ± 0.89	Vmax [6]: 30.46 ± 0.96 pmol/min/mg protein
–	–	MS3: 0%	almost equal amounts	MS3: 22.0 ± 1.9%	trace amount	O=S(=O)(O)Oc1ccc(C2Oc3cc(O)cc(/C=C/c4ccc(O)cc4)c3C2c2cc(O)cc(O)c2)cc1 (stereo not shown) [MS3]	–	–	13.47 ± 1.10	–
–	–	MS4: 0%	almost equal amounts	MS4: 16.4 ± 1.3%	trace amount	O=S(=O)(O)Oc1cc(O)cc(C2c3c(/C=C/c4ccc(O)cc4)cc(O)cc3OC2c2ccc(O)cc2)c1 (stereo not shown) [MS4]	–	–	36.79 ± 3.94	–
